{"source": "paper PMC10222323", "about": "“Novel Biotinylated Cu(II)-Phenanthroline Complexes: 2D and 3D Cytotoxic Activity and Mechanistic Insight” (Molecules, 2023)", "key": {"[1]": {"test_system": "HCT-15 (colorectal with low sensitivity for cisplatin) cancer cells", "assay": "MTT cytotoxicity test, 72 h, HCT-15", "assay_type": "cell-based, human", "settings": "mean ± S.D.", "procedure": "(§1) The in vitro anticancer potential of the newly developed complexes and of the ligands has been tested on six different cancer cell lines including PSN-1 (pancreatic), HCT-15 (colorectal with low sensitivity for cisplatin), 2008 (ovarian), A431 (cervical), MDA-MB-231 (breast), and U1285 (lung) cancer cells. For comparison purposes, cisplatin efficacy was assessed under the same experimental conditions.\n(§2) Tested compounds were dissolved in DMSO and added to the cell-growth medium to a final solvent concentration of 0.5%, which is well reported to not have cytotoxic effects on cell viability. Cisplatin (Sigma Chemical Co., St. Louis, MO, USA) was dissolved in a physiologic solution (0.9% sodium chloride).\n(§3) Human colon (HCT-15), pancreatic (PSN-1), and breast (MDA-MB-231) carcinoma-cell lines were obtained from the American Type Culture Collection (ATCC, Rockville, MD). Human cervical carcinoma (A431) cells were kindly provided by Prof. F. Zunino (Division of Experimental Oncology B, Istituto Nazionale dei Tumori, Milan). Human ovarian carcinoma (2008) cells and their cisplatin-resistant counterpart (C13*) were kindly provided by Prof. G. Marverti (Dipartimento di Scienze Biomediche, Università di Modena University, Italy). Cell lines were cultured in RPMI-1640 or DMEM medium (Euroclone) added with 10% fetal calf serum (Euroclone, Milan, Italy), antibiotics (50 units per mL penicillin, and 50 μg mL^−1 streptomycin), and 2 mM L-glutamine.\n(§4) The growth inhibitory effect toward the tumour cell lines was evaluated by the MTT test as previously described."}, "[2]": {"test_system": "2008 (ovarian) cancer cells", "assay": "MTT cytotoxicity test, 72 h, 2008", "assay_type": "cell-based, human", "procedure": "as §1\n(§5) Table 2 reported the IC50 values of the complexes against two types of ovarian cancer cells, one sensitive (2008) and one resistant to cisplatin (C13*). […] The resistance factor (R.F., the ratio among IC50 values obtained in resistant C13*cells and those calculated in the sensitive 2008 ones) calculated for all tested complexes resulted to be ≤2 (R.F. for cisplatin 11.1), strongly confirming the ability of the complexes to bypass cisplatin resistance.\nas §2, §3, §4"}, "[3]": {"test_system": "MDA-MB-231 (breast) cancer cells", "assay": "MTT cytotoxicity test, 72 h, MDA-MB-231", "assay_type": "cell-based, human", "settings": "mean ± S.D.", "procedure": "as §1, §2, §3, §4"}, "[4]": {"test_system": "U1285 (lung) cancer cells", "assay": "MTT cytotoxicity test, 72 h, U1285", "assay_type": "cell-based, human", "settings": "mean ± S.D., read-out: IC50 U-1285", "procedure": "as §1, §2, §4"}, "[5]": {"test_system": "C13* ovarian cancer cells (cisplatin-resistant)", "assay": "MTT cytotoxicity test, 72 h, cisplatin-resistant C13*", "assay_type": "cell-based, human", "settings": "for R.F. (resistance factor): RF = IC50 resistant (C13*)/IC50 parental cells (2008); for IC50: cisplatin-resistant cells, 72 h, MTT test", "procedure": "as §5, §2, §3, §4"}, "noncancerous CHO cells": {"test_system": "noncancerous CHO cells", "assay": "Cytotoxicity against noncancerous CHO cells", "assay_type": "cell-based", "settings": "for S.I. (selectivity index): average IC50 toward normal cells divided by the average IC50 for the malignant cells; for IC50: noncancerous cells", "source_text": "In order to preliminarily assess the possible toxic effect on noncancerous cells, we also evaluated the cytotoxic potential of the newly developed Cu(II) complexes against noncancerous CHO cells (Table 3). For all tested complexes, calculated IC50 values were higher than those obtained (on average) against tumour cells, thus indicating for this class of metal complexes a slightly preferential cytotoxicity against cancer cells, as attested by the calculated selectivity index values (SI = the quotient of the average IC50 toward normal cells divided by the average IC50 for the malignant cells).\nas §4"}, "DNA": {"test_system": "DNA", "assay": "Ethidium bromide displacement assay", "assay_type": "binding", "settings": "EtBr displacement", "procedure": "A number of research studies were performed on the elucidation of the mechanism of action of copper complexes in the past three decades. Despite several different molecular targets having been proposed for copper(II) complexes, DNA still represents one of the most substantiated when considering diamine ligands. On this basis, we thought it of interest to evaluate the ability of tested complexes to interact with DNA, both at molecular and cellular levels. An ethidium bromide (EB) displacement assay was used to understand if the complexes interact with the DNA at a molecular level. […] These values are very much in line with what was previously seen by us and also very close to the reported literature values of 2.60 × 10^7 M(bp^−1) and 3.04 × 10^7 M(bp^−1) for the bis complexes of [Cu(phen)2]^2+ and [Cu(DPQ)2]^2+ reported by Molphy et al.. […] It is largely possible that the presence of the 1,10-phenanthroline scaffold on compounds 3 and 4 is contributing to the increased displacement of the EtBr (probably by intercalation) and leading to a more noticeable decrease in the fluorescence.\nEtBr displacement assays were performed in 10 mM phosphate buffer solution (pH 7.4) as described by Boger et al. The binding values were calculated using the % relative decrease of fluorescence at 50% and the equation below. (1) EEBEtBr/compound50%FI"}, "[6]": {"target": "T1, protein disulphide isomerase (PDI) (Homo sapiens, UniProt P07237)", "T1 construct": "purchased Enzo Life Sciences, Lausen, Switzerland", "T1 sequence (P07237 18-508)": "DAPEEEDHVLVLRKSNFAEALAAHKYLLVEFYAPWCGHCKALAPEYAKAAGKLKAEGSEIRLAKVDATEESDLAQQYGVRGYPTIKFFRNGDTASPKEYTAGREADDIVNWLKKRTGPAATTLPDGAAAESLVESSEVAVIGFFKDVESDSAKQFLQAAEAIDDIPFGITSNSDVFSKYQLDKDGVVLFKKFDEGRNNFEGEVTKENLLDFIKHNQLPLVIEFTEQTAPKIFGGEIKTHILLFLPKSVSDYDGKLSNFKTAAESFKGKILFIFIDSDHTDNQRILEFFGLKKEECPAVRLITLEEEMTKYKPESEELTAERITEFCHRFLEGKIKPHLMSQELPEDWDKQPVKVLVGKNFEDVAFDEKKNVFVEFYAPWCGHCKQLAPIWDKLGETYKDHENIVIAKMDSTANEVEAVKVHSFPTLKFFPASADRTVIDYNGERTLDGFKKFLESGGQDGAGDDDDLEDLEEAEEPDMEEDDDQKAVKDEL", "assay": "PDI reductase activity (PROTEOSTAT PDI assay kit)", "assay_type": "biochemical", "settings": "25 µM of complex", "procedure": "MDA-MDB-231 cells were exposed for 3 h to 4 μM of tested compounds or 200 µM of the reference drug chlorambucil. […] On the other hand, some reports highlighted protein disulphide isomerase (PDI) as an emerging target for copper complexes.\nThe reductase activity of PDI was assayed by measuring the PDI-catalysed reduction of insulin in the presence of increasing concentrations of the tested compounds by using the PROTEOSTAT PDI assay kit (Enzo Life Sciences, Lausen, Switzerland). Experiments were performed according to the manufacturer’s instructions as previously described. IC50 values were calculated by the 4-PL model.\nFigure 4 Mechanistic studies. (A) Comet assay: MDA-MDB-231 cells were treated for 3 h with 4 μM of tested compounds 2 and 4 or 200 µM of the reference drug chlorambucil. […] The PDI inhibitor Bacitracine (0.5 mM) was used as a positive control."}, "MDA-MB-231 cells": {"test_system": "MDA-MB-231 cells", "settings": "24 h, IC50 concentrations", "procedure": "Transmission electron microscopy (TEM) studies were also performed to assess the eventual modification of cellular/subcellular morphological features induced by the tested complexes. Figure 5 reports the TEM images of the breast carcinoma cells MDA-MB-231 treated for 24 h with IC50 concentrations of cisplatin or compounds 2 and 4.\nAbout 10^6 MDA-MB-231 cells were seeded in 24-well plates and, following overnight incubation, were treated with the tested compounds for 24 h. Then, cells were processed as previously described. Pictures were captured with a Hitachi H-600 electron microscope (Hitachi, Tokyo, Japan) operating at 75 kV. All photos were analyzed by using Corel Draw 11.\nFigure 5 TEM analysis of MDA-MB-231 human breast cancer cells: (a,b) control cells; (c–e) cells treated for 24 h with IC50 concentrations of 2; (f–h) cells treated for 24 h with IC50 concentrations of 4."}, "[7]": {"settings": "Table 2, cisplatin-sensitive parental cells"}}, "data": [{"smiles": "O=C(CCCC[C@@H]1SC[C@@H]2NC(=O)N[C@@H]21)NN=C1C(=O)c2ccc[n+]3c2-c2c1ccc[n+]2[Cu-2]3([Cl])[Cl]", "note": "[Complex 2, [Cu(phendione-biotin)Cl2]]", "values": [{"measurement": "IC50", "setting": "[1]", "value": "400 ± 100", "unit": "nM"}, {"measurement": "IC50", "setting": "[2]; Table 1, mean ± S.D.", "value": "1100 ± 300", "unit": "nM"}, {"measurement": "IC50", "setting": "[2]; [7]", "value": "1100 ± 300", "unit": "nM"}, {"measurement": "IC50", "setting": "[3]", "value": "1400 ± 100", "unit": "nM"}, {"measurement": "IC50", "setting": "[4]", "value": "3800 ± 500", "unit": "nM"}, {"measurement": "R.F. (resistance factor)", "setting": "[5]", "value": 1.0}, {"measurement": "IC50", "setting": "[5]", "value": "1100 ± 400", "unit": "nM"}, {"measurement": "S.I. (selectivity index)", "setting": "noncancerous CHO cells", "value": 3.7}, {"measurement": "IC50", "setting": "noncancerous CHO cells", "value": "5200 ± 300", "unit": "nM"}, {"measurement": "fluorescence quenching (in words)", "setting": "DNA", "value": "very small quenching"}, {"measurement": "PDI inhibition", "setting": "[6]", "value": 45, "unit": "%"}, {"measurement": "cell morphology by TEM", "setting": "MDA-MB-231 cells", "value": "substantial enhancement of the mitochondrial dimensions (swelling) and a partial disruption of the cristae structures"}]}, {"smiles": "O=C(CCCC[C@@H]1SC[C@@H]2NC(=O)N[C@@H]21)NN=C1C(=O)c2ccc[n+]3c2-c2c1ccc[n+]2[Cu-2]31[n+]2cccc3ccc4ccc[n+]1c4c32.O=[N+]([O-])[O-].O=[N+]([O-])[O-]", "note": "[Complex 4, [Cu(phen)(phendione-biotin)](NO3)2]", "values": [{"measurement": "IC50", "setting": "[1]", "value": "400 ± 20", "unit": "nM"}, {"measurement": "IC50", "setting": "[2]; Table 1, mean ± S.D.", "value": "600 ± 200", "unit": "nM"}, {"measurement": "IC50", "setting": "[2]; [7]", "value": "600 ± 200", "unit": "nM"}, {"measurement": "IC50", "setting": "[3]", "value": "600 ± 100", "unit": "nM"}, {"measurement": "IC50", "setting": "[4]", "value": "2000 ± 600", "unit": "nM"}, {"measurement": "R.F. (resistance factor)", "setting": "[5]", "value": 1.9}, {"measurement": "IC50", "setting": "[5]", "value": "1100 ± 300", "unit": "nM"}, {"measurement": "S.I. (selectivity index)", "setting": "noncancerous CHO cells", "value": 2.3}, {"measurement": "IC50", "setting": "noncancerous CHO cells", "value": "1800 ± 700", "unit": "nM"}, {"measurement": "fluorescence quenching (in words)", "setting": "DNA", "value": "highest quenching values"}, {"measurement": "relative fluorescence decrease", "setting": "DNA", "value": "greater than 50%"}, {"measurement": "binding constant", "setting": "DNA; 10 mM phosphate buffer pH 7.4, from 50% fluorescence decrease", "value": "1.28 × 10^7 M(bp^−1)"}, {"measurement": "PDI inhibition", "setting": "[6]", "value": 15, "unit": "%"}, {"measurement": "cell morphology by TEM", "setting": "MDA-MB-231 cells", "value": "substantial enhancement of the mitochondrial dimensions (swelling) and a partial disruption of the cristae structures"}]}]}
